Biological target: T1, human Farnesoid X Receptor (FXR) ligand binding domain (GST-FXR LBD) (Homo sapiens, UniProt Q96RI1)
T1 construct: purchased Invitrogen
T1 sequence (Q96RI1 193-472 isoform Q96RI1-2): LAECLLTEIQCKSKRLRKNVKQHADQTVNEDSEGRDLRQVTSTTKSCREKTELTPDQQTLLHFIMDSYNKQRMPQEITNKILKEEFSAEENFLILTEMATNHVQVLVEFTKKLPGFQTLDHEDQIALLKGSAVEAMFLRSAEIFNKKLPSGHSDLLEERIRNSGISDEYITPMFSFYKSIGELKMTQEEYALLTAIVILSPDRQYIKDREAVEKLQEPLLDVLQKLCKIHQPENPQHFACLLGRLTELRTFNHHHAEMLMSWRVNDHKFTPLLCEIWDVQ
Assay: Human GST-FXR LBD co-activator interaction assay (FXR HTRF assay)
Type: biochemical
Settings: GST-FXR LBD interaction with biotin-labeled SRC-1 peptide, FRET, response relative to GW4064, read-out: FXR coactivator interaction assay (HTRF)
Excerpt: Human GST-FXR LBD Co-Activator Interaction Assay
The FXR HTRF assay is a biochemical assay measuring the interaction between FXR and a coactivator protein (SRC1). The ligand-induced interaction with a coactivator protein is a critical step in transcriptional activation by FXR. Thus, this is an assay designed to measure FXR agonist activity of the test compounds.
Recombinant human Farnesoid X Receptor (FXR) ligand binding domain (amino acids 193-472) fused to glutathione S-transferase (GST) purified protein (GST-FXR LBD) was purchased (Invitrogen). The ligand-dependent interaction between GST-FXR LBD and a peptide derived from Steroid Receptor Coactivator-1 (SRC-1) was monitored by Fluorescence Resonance Energy Transfer (FRET). […] Test compounds (in DMSO solution) and detection reagents (anti-GST-Cryptate labeled antibody and Streptavidin-XL665 conjugate; CisBio) were added in assay buffer containing 50 mM KF. Plates are incubated at room temperature in the dark for 2.5 hrs before reading on an Envision (PerkinElmer) at 665 nm and 590 nm. The HTRF assay results were calculated from the 665 nm/590 nm ratio (ratio=(A665 nm/A590 nm)×10^4) and expressed in Delta F %=(Ratiosample−Rationegative)/Rationegative×100.
A negative control (without Streptavidin-XL665) was run with each assay and represented the background fluorescence. A reference FXR agonist, (E)-3-(2-chloro-4-((3-(2,6-dichlorophenyl)-5-isopropylisoxazol-4-yl)methoxy)styryl)benzoic acid (Compound GW4064), was included in each experiment as positive control. The efficacy of each test compound was compared to that of GW4064. At each concentration, the relative activity of the test compound was expressed as Response %=(Rsample−RDMSO)/(Rpositive−RDMSO), where Rsample is the HTRF response (expressed in Delta F %) for the test compound, Rpositive is the maximal response for GW4064 at saturating concentrations, and RDMSO is the response for DMSO control. The EC50 values were calculated using GraphPad Prism (GraphPad Software) using non-linear regression curve fit (log(agonist) vs. response-variable slope (four parameters)).

SMILES | EC50
Cn1nc(C(=O)N(CCNc2cccc(C(=O)O)c2)Cc2ccccc2F)c2c1-c1cc(Cl)ccc1OC2 [Compound 63, 3-((2-(8-chloro-N-(2-fluorobenzyl)-1-methyl-1,4-dihydrochromeno[4,3-c]pyrazole-3-carboxamido)ethyl)amino)benzoic Acid] | 6 nM
Cn1nc(C(=O)N(CCOc2ccc(C(=O)O)cc2F)Cc2ccccc2F)c2c1-c1cc(Cl)ccc1OC2 [Compound 43, 4-(2-(8-chloro-N-(2-fluorobenzyl)-1-methyl-1,4-dihydrochromeno[4,3-c]pyrazole-3-carboxamido)ethoxy)-3-fluorobenzoic Acid] | 18 nM
Cn1nc(C(=O)N(CC(=O)Nc2cc(C(=O)O)ccc2F)Cc2ccccc2F)c2c1-c1cc(Cl)ccc1OCC2 [Compound 34, 3-(2-(9-chloro-N-(2-fluorobenzyl)-1-methyl-4,5-dihydro-1H-benzo[2,3]oxepino[4,5-c]pyrazole-3-carboxamido)acetamido)-4-fluorobenzoic acid] | 2.1 nM
Cn1nc(C(=O)N(CC(=O)Nc2cccc(C(=O)O)c2)Cc2ccccc2F)c2c1-c1ccc(Cl)cc1OC2 [Compound 9, 3-(2-(7-chloro-N-(2-fluorobenzyl)-1-methyl-1,4-dihydrochromeno[4,3-c]pyrazole-3-carboxamido)acetamido)benzoic acid] | 3.6 nM
Cc1nc(C(=O)O)ccc1CN(Cc1cccc(F)c1)C(=O)c1nn(C)c2c1COc1ccc(Cl)cc1-2 [Compound 99, 5-((8-chloro-N-(3-fluorobenzyl)-1-methyl-1,4-dihydrochromeno[4,3-c]pyrazole-3-carboxamido)methyl)-6-methylpicolinic acid] | 29 nM
Cn1nc(C(=O)N(CC(=O)Nc2cccc(C(=O)O)c2)Cc2ccccc2F)c2c1-c1cc(Cl)cc(F)c1OC2 [Compound 15, 3-(2-(8-chloro-6-fluoro-N-(2-fluorobenzyl)-1-methyl-1,4-dihydrochromeno[4,3-c]pyrazole-3-carboxamido)acetamido)benzoic acid] | 2.22 nM
Cn1nc(C(=O)N(CCOc2ccc(C(=O)O)cc2F)Cc2ccccc2)c2c1-c1cc(F)ccc1OC2 [Compound 56, 4-(2-(N-benzyl-8-fluoro-1-methyl-1,4-dihydrochromeno[4,3-c]pyrazole-3-carboxamido)ethoxy)-3-fluorobenzoic acid] | 40 nM
Cn1nc(C(=O)N(Cc2ccc(C(=O)O)cc2)Cc2cccc(F)c2)c2c1-c1cc(F)ccc1OC2 [Compound 77, 4-((8-fluoro-N-(3-fluorobenzyl)-1-methyl-1,4-dihydrochromeno[4,3-c]pyrazole-3-carboxamido)methyl)benzoic acid] | 7.9 nM
Cn1nc(C(=O)N(CC(=O)Nc2cccc(C(=O)O)c2)Cc2ccccc2F)c2c1-c1cc(Cl)ccc1OC2 [Compound 35, 3-(2-(8-chloro-N-(2-fluorobenzyl)-1-methyl-1,4-dihydrochromeno[4,3-c]pyrazole-3-carboxamido)acetamido)benzoic Acid] | 0.77 nM
Cn1nc(C(=O)N(Cc2ccccc2F)Cc2ccc(C(=O)O)cc2F)c2c1-c1cc(F)ccc1OC2 [Compound 94, 3-fluoro-4-((8-fluoro-N-(2-fluorobenzyl)-1-methyl-1,4-dihydrochromeno[4,3-c]pyrazole-3-carboxamido)methyl)benzoic acid] | 32 nM
Cn1nc(C(=O)N(CC(=O)Nc2cc(C(=O)O)ccc2F)Cc2ccccc2)c2c1-c1cc(F)ccc1OC2 [Compound 32, 3-(2-(N-benzyl-8-fluoro-1-methyl-1,4-dihydrochromeno[4,3-c]pyrazole-3-carboxamido)acetamido)-4-fluorobenzoic acid] | 0.74 nM
Cn1nc(C(=O)N(CCOc2ccc(C(=O)O)cc2F)Cc2ccccc2)c2c1-c1cc(Cl)ccc1OC2 [Compound 55, 4-(2-(N-benzyl-8-chloro-1-methyl-1,4-dihydrochromeno[4,3-c]pyrazole-3-carboxamido)ethoxy)-3-fluorobenzoic Acid] | 13 nM
Cn1nc(C(=O)N(Cc2ccc(C(=O)O)cc2)Cc2cccc(F)c2F)c2c1-c1cc(Cl)ccc1OC2 [Compound 81, 4-((8-chloro-N-(2,3-difluorobenzyl)-1-methyl-1,4-dihydrochromeno[4,3-c]pyrazole-3-carboxamido)methyl)benzoic acid] | 21 nM
Cn1nc(C(=O)N(Cc2ccc(C(=O)O)cc2)Cc2cc(F)cc(F)c2)c2c1-c1cc(F)ccc1OC2 [Compound 83, 4-((N-(3,5-difluorobenzyl)-8-fluoro-1-methyl-1,4-dihydrochromeno[4,3-c]pyrazole-3-carboxamido)methyl)benzoic acid] | 14 nM
Cn1nc(C(=O)N(CCOc2ccc(C(=O)O)cc2C(F)(F)F)Cc2ccccc2F)c2c1-c1cc(Cl)ccc1OC2 [Compound 51, 4-(2-(8-chloro-N-(2-fluorobenzyl)-1-methyl-1,4-dihydrochromeno[4,3-c]pyrazole-3-carboxamido)ethoxy)-3-(trifluoromethyl)benzoic acid] | 9.8 nM
Cn1nc(C(=O)N(CCOc2c(F)cc(C(=O)O)cc2F)Cc2ccccc2)c2c1-c1cc(F)ccc1OC2 [Compound 54, 4-(2-(N-benzyl-8-fluoro-1-methyl-1,4-dihydrochromeno[4,3-c]pyrazole-3-carboxamido)ethoxy)-3,5-difluorobenzoic acid] | 21 nM
Cn1nc(C(=O)N(CC(=O)Nc2cc(C(=O)O)ccc2F)Cc2ccccc2)c2c1-c1cc(F)c(F)cc1OC2 [Compound 19, 3-(2-(N-benzyl-7,8-difluoro-1-methyl-1,4-dihydrochromeno[4,3-c]pyrazole-3-carboxamido)acetamido)-4-fluorobenzoic acid] | 0.5 nM
Cn1nc(C(=O)N(Cc2cccc(F)c2)Cc2ccc(C(=O)O)c(F)c2)c2c1-c1cc(Cl)ccc1OC2 [Compound 90, 4-((8-chloro-N-(3-fluorobenzyl)-1-methyl-1,4-dihydrochromeno[4,3-c]pyrazole-3-carboxamido)methyl)-2-fluorobenzoic acid] | 5 nM
Cn1nc(C(=O)N(Cc2ccc(C(=O)O)c(F)c2)Cc2ccccc2F)c2c1-c1cc(Cl)ccc1OC2 [Compound 97, 4-((8-chloro-N-(2-fluorobenzyl)-1-methyl-1,4-dihydrochromeno[4,3-c]pyrazole-3-carboxamido)methyl)-2-fluorobenzoic acid] | 17 nM
Cn1nc(C(=O)N(Cc2ccccc2F)Cc2ccc(C(=O)O)cc2F)c2c1-c1cc(Cl)ccc1OC2 [Compound 93, 4-((8-chloro-N-(2-fluorobenzyl)-1-methyl-1,4-dihydrochromeno[4,3-c]pyrazole-3-carboxamido)methyl)-3-fluorobenzoic acid] | 13 nM
Cn1nc(C(=O)N(CCOc2c(F)cc(C(=O)O)cc2F)Cc2ccccc2F)c2c1-c1cc(Cl)ccc1OC2 [Compound 50, 4-(2-(8-chloro-N-(2-fluorobenzyl)-1-methyl-1,4-dihydrochromeno[4,3-c]pyrazole-3-carboxamido)ethoxy)-3,5-difluorobenzoic acid] | 11 nM
Cc1cc2c(cc1Cl)-c1c(c(C(=O)N(CC(=O)Nc3cccc(C(=O)O)c3)Cc3ccccc3F)nn1C)CO2 [Compound 13, 3-(2-(8-chloro-N-(2-fluorobenzyl)-1,7-dimethyl-1,4-dihydrochromeno[4,3-c]pyrazole-3-carboxamido)acetamido)benzoic acid] | 0.8 nM
Cn1nc(C(=O)N(CC(=O)Nc2cccc(C(=O)O)c2)Cc2ccccc2F)c2c1-c1cc(Cl)ccc1CC2 [Compound 24, 3-(2-(8-chloro-N-(2-fluorobenzyl)-1-methyl-4,5-dihydro-1H-benzo[g]indazole-3-carboxamido)acetamido)benzoic acid] | 3.2 nM
Cn1nc(C(=O)N(Cc2ccccc2)Cc2ccc(C(=O)O)c(F)c2)c2c1-c1cc(Cl)ccc1OC2 [Compound 91, 4-((N-benzyl-8-chloro-1-methyl-1,4-dihydrochromeno[4,3-c]pyrazole-3-carboxamido)methyl)-2-fluorobenzoic acid] | 6.5 nM
Cc1cc(C(=O)O)cc(C)c1OCCN(Cc1ccccc1F)C(=O)c1nn(C)c2c1COc1ccc(Cl)cc1-2 [Compound 47, 4-(2-(8-chloro-N-(2-fluorobenzyl)-1-methyl-1,4-dihydrochromeno[4,3-c]pyrazole-3-carboxamido)ethoxy)-3,5-dimethylbenzoic acid] | 0.53 nM

Reference: patent US11021446B2 (NOVARTIS AG, priority 2013, dated 2021)
